This is an account of results in ChEMBL document CHEMBL2157906, “Identification of a dual δ OR antagonist/μ OR agonist as a potential therapeutic for diarrhea-predominant Irritable Bowel Syndrome (IBS-d)” (Bioorg Med Chem Lett, 2012).

Data set [1] addresses Delta-type opioid receptor (Rattus norvegicus, UniProt P33533). Kind of data set: Binding affinity to rat delta opioid receptor.
Data set [2] deals with T1, Delta-type opioid receptor (Homo sapiens, UniProt P41143). Kind of data set: Agonist activity at delta opioid receptor expressed in CHO-hg cells by [35S]-GTPgammaS binding assay. It is filed as functional, cell-based. On the technique in general: GTPγS resists hydrolysis and so accumulates on activated G proteins.
For data set [3], the target named is T1, Delta-type opioid receptor. Kind of data set: Antagonist activity at delta opioid receptor expressed in CHO-hg cells assessed as inhibition of SNC-80-induced [35S]-GTPgammaS binding. Type of data set: functional, cell-based.
For data set [4], the target named is Mu-type opioid receptor (Rattus norvegicus, UniProt P33535). Kind of data set: Binding affinity to rat mu opioid receptor.
For data set [5], the target named is T2, Mu-type opioid receptor (Homo sapiens, UniProt P35372). Kind of data set: Agonist activity at mu opioid receptor expressed in CHO-hg cells by [35S]-GTPgammaS binding assay. It is filed as functional, cell-based.
The next data set addresses Cytochrome P450 3A4 (Homo sapiens, UniProt P08684). Kind of data set: Inhibition of CYP3A4 in human liver microsomes. It is filed as ADME, Microsome. In general terms: Liver microsomes are a subcellular fraction often used to study metabolism.
The target in data set [6] is Voltage-gated inwardly rectifying potassium channel KCNH2 (Homo sapiens, UniProt Q12809). Kind of data set: Displacement of [3H]-astemizole from human ERG. A general note: In a radioligand displacement assay an active substance lowers the binding of a labelled ligand.
Data set [7] is described as follows: Half life in human liver microsomess. Type of data set: ADME, Microsome. Particulars: liver microsomes.
The nature of data set [8]: Solubility of the compound at pH 7.4. It is filed as physicochemical. To be noted: buffer.
Data set [9] has as its target T2, Mu-type opioid receptor. Kind of data set: Binding affinity to human mu opioid receptor.
Data set [10] addresses T3, Kappa-type opioid receptor (Cavia porcellus, UniProt P41144). Kind of data set: Agonist activity at kappa opioid receptor guinea pig colon tissue. It is filed as functional, tissue-based.
For data set [11], the target named is T3, Kappa-type opioid receptor. Kind of data set: Binding affinity to guinea pig kappa opioid receptor.
Data set [12] can be described thus: Antagonist activity at delta opioid receptor in hamster vas deferens tissue. Type of data set: functional, tissue-based. Particulars: Cricetinae.

pEC50, pIC50, pKi: −log10 of the molar value. Calls of active or inactive are those of the source. The calls are words filed in the database; no cut-off is given here.

Chain of Delta-type opioid receptor (Rattus norvegicus, UniProt P33533) (P33533 whole entry): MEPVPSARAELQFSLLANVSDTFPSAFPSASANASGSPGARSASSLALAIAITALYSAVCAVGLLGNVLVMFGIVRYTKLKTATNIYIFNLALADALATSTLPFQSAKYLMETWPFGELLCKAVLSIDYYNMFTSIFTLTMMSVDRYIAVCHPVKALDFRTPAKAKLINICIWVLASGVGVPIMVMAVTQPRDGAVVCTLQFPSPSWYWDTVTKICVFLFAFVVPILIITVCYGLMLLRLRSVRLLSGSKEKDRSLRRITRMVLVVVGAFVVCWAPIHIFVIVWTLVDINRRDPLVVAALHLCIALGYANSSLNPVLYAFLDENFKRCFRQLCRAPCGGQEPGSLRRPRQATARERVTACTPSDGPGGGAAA
T1 sequence (P41143 whole entry): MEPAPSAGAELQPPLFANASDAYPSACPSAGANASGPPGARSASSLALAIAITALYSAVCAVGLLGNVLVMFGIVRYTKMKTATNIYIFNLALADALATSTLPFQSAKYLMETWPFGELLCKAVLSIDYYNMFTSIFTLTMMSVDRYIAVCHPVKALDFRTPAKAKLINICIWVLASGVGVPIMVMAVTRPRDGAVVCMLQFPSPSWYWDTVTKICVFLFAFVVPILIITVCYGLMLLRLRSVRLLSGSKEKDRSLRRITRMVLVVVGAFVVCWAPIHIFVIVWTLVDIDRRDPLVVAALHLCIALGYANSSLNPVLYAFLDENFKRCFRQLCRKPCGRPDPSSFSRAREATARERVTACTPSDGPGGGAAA
T2 sequence (P35372 whole entry): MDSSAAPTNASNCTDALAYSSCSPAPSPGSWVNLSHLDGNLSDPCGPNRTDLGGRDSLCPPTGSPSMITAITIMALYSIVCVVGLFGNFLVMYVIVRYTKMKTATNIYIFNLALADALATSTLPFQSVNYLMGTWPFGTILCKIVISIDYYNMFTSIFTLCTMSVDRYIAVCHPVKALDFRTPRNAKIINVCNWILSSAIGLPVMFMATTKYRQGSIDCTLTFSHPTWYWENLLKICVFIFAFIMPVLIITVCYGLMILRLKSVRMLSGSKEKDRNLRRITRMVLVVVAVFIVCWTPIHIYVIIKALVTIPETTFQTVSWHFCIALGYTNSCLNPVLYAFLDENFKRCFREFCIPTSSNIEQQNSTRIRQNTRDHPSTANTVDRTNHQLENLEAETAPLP
Chain of Mu-type opioid receptor (Rattus norvegicus, UniProt P33535) (P33535 whole entry): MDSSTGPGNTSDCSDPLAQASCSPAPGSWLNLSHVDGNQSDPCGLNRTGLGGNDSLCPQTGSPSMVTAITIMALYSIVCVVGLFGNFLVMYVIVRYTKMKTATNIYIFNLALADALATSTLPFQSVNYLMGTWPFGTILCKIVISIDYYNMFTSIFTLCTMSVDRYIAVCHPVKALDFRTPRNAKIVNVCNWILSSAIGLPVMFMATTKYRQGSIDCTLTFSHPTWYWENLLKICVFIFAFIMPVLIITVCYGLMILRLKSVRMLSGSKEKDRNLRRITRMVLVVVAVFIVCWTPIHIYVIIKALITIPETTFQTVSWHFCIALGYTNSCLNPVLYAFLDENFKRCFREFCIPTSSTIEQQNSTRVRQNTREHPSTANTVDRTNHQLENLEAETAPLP
T3 sequence (P41144 whole entry): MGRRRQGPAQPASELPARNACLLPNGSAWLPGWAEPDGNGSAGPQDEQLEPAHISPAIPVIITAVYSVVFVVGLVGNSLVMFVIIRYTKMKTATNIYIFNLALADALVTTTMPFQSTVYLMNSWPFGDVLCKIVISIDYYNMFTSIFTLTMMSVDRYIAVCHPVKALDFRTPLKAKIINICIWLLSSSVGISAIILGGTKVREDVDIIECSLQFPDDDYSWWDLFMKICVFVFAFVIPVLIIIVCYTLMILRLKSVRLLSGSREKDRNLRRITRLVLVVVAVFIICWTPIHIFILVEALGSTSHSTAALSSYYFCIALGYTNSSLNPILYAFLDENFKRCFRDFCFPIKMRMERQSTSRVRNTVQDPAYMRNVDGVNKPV
Chain of Voltage-gated inwardly rectifying potassium channel KCNH2 (Q12809 whole entry): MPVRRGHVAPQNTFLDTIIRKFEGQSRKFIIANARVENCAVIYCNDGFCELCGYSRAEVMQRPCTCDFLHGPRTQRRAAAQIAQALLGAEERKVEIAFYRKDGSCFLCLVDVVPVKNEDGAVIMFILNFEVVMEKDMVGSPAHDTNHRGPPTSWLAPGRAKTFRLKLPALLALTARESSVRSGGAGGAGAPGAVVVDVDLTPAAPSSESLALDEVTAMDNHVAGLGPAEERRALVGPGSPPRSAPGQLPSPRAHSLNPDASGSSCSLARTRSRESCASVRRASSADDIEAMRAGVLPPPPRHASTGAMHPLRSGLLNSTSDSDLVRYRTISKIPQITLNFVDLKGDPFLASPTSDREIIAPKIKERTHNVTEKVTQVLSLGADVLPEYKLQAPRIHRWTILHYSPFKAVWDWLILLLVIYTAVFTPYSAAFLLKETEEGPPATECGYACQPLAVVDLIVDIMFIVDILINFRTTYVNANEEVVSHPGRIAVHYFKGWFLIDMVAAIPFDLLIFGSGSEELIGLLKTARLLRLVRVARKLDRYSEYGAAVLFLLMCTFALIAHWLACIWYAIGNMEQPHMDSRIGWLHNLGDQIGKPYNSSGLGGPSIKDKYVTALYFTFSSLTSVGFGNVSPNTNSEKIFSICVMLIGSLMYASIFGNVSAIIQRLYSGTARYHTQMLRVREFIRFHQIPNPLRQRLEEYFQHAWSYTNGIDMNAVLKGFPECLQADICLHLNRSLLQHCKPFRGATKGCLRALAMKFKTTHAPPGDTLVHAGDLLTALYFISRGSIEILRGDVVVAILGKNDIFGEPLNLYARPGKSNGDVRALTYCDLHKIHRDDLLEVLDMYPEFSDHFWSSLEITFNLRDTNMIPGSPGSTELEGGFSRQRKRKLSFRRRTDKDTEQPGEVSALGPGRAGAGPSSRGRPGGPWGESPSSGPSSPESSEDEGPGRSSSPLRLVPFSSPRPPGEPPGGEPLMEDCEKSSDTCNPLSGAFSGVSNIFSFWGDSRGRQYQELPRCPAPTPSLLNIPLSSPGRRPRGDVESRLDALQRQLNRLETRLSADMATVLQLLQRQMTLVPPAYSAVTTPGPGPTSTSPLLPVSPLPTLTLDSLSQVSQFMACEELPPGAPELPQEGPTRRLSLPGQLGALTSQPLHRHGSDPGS
Chain of Cytochrome P450 3A4 (P08684 whole entry): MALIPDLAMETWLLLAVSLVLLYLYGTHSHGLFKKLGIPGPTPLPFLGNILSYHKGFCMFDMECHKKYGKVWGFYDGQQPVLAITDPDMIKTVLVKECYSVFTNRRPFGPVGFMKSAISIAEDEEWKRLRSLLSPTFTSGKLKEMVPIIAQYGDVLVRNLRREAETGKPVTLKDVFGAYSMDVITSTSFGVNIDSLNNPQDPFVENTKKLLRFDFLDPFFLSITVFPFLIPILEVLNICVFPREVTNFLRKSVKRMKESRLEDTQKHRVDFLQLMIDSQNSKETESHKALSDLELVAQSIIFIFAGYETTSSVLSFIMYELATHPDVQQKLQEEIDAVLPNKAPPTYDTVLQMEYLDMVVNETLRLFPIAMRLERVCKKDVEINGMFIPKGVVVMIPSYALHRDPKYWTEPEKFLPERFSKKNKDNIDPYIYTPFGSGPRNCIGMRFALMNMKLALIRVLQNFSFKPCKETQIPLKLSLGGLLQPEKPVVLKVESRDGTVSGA

A word on the pKi: it is the Ki on a negative log10 scale, so that one unit is a factor of ten. Low values mean a high Ki, high ones a low Ki. For the compound `Cc1cc(O)cc(C)c1C[C@H](N)C(=O)N(C)[C@@H](C)c1nc(-c2ccccc2)c[nH]1`, the pKi in data set [1] is 7.82.
What is called pEC50 is −log10 of the EC50, conventionally taken in molar units. Read a high pEC50 as a low EC50. For `Cc1cc(C(N)=O)cc(C)c1C[C@H](N)C(=O)N(Cc1cccc(C(=O)O)c1)[C@@H](C)c1nc(-c2ccccc2)c[nH]1`, the pKi in data set [1] was 9.30; on Mu-type opioid receptor [4] it was 9.00. This compound also showed a negative logarithm of the EC50 (pEC50) in data set [2] below 5.00. Also, the inhibition entry in data set [3] is “Active”.
With `Cc1cc(C(N)=O)cc(C)c1C[C@H](N)C(=O)N1CCCC[C@H]1c1nc(-c2ccccc2)c[nH]1`, the negative-log EC50 (pEC50) in data set [2] was 6.87; on Mu-type opioid receptor [5], 8.05.
For `Cc1cc(O)cc(C)c1C[C@H](N)C(=O)N1CCCC[C@H]1c1nc(-c2ccccc2)c[nH]1` the same measures were 7.43 and 8.70.
In the case of `Cc1cc(O)cc(C)c1C[C@H](N)C(=O)N(C(C)C)[C@@H](C)c1nc(-c2ccccc2)c[nH]1`, the values for the pKi (in data set [1]; on Mu-type opioid receptor [4]) were 8.85 and 10.52, respectively. Also, the pEC50 in data set [2] was 6.99.
Take `Cc1cc(O)cc(C)c1C[C@H](N)C(=O)N1Cc2ccccc2C[C@H]1c1nc(-c2ccccc2)c[nH]1`: the negative logarithm of the EC50 (pEC50) is 9.05 in data set [2] and 7.57 at Mu-type opioid receptor [5].
For the compound `Cc1cc(O)cc(C)c1C[C@H](N)C(=O)N[C@@H](Cc1ccccc1)c1nc(-c2ccccc2)c[nH]1`, the pKi on Mu-type opioid receptor [4] was 7.89.
Broadly, the pIC50 is the IC50 on a negative log10 scale, so that one unit is a factor of ten. The low end stands for a large IC50, the high end for a small IC50. What is called half-life is how long it takes for the measured level to halve. Low values mean fast loss, high ones slow loss. Usually solubility stands for how much of the substance goes into solution per volume. As to `COc1ccc(CN(C(=O)[C@@H](N)Cc2c(C)cc(C(N)=O)cc2C)C(C)c2nc(-c3ccccc3)c[nH]2)cc1C(=O)O.Cl.Cl` (single isomer, unassigned), the results for the negative-log IC50 (pIC50) (on Cytochrome P450 3A4; in [6]) were below 4.70 and below 5.00, respectively. In [7], this compound displayed a half-life of 2.5 h. Besides, the solubility in data set [8] is above 1000 µg/mL. The pKi on Mu-type opioid receptor [9] was 8.77.
For `COc1ccc(CN(C(=O)[C@@H](N)Cc2c(C)cc(C(N)=O)cc2C)[C@@H](C)c2nc(-c3ccccc3)c[nH]2)cc1C(=O)O` [ELUXADOLINE], the pKi in [1] was 8.89; on Mu-type opioid receptor [4], 9.05; in [11], 7.26. Besides, the pEC50 in data set [2] is below 5.00; in data set [10], 5.80.
As for `N[C@@H](Cc1ccc(O)cc1)C(=O)N1Cc2ccccc2C[C@H]1c1nc(-c2ccccc2)c[nH]1`, the pEC50 was 7.72 in data set [2] and 5.61 on Mu-type opioid receptor [5].
On to `COc1ccc(CN(C(=O)[C@@H](N)Cc2c(C)cc(C(N)=O)cc2C)[C@@H](C)c2ncc(-c3ccccc3)[nH]2)cc1C(=O)O` [ELUXADOLINE], for which the inhibition result in data set [3] was “Active”. The compound also gave a pIC50 in data set [12] of 7.05.
As for `Cc1cc(O)cc(C)c1C[C@H](N)C(=O)N(Cc1ccccc1)[C@@H](C)c1nc(-c2ccccc2)c[nH]1`, the pKi in [1] was 8.82.
`Cc1cc(O)cc(C)c1C[C@H](N)C(=O)N(Cc1nc(-c2ccccc2)c[nH]1)C(C)C`: the pKi in data set [1] was 7.82; at Mu-type opioid receptor [4], 10.00.
`Cc1cc(C(N)=O)cc(C)c1C[C@H](N)C(=O)N1Cc2ccccc2C[C@H]1c1nc(-c2ccccc2)c[nH]1`: the negative-log EC50 (pEC50) in [2] was 7.66; on Mu-type opioid receptor [5], 6.79.
At Mu-type opioid receptor [4], `Cc1cc(C(N)=O)cc(C)c1C[C@H](N)C(=O)N(Cc1ccccc1)[C@@H](C)c1nc(-c2ccccc2)c[nH]1` gave a pKi of 9.52.
